# Literature values, collected in patent US10352920B2, “Supplements and monitoring systems for dosing of the supplements” (i-CalQ, LLC, priority 2012, dated 2019).
# Tests used:
# [1] = tested on: lipoxygenase; conditions: in vitro
# [2] = target: inducible nitric oxide synthase (Homo sapiens, UniProt P35228); conditions: in vitro
# [3] = dietary curcumin
# [4] = tested on: athletes involved in cycling, weight training and endurance running; conditions: sports nutrition studies
# [5] = tested on: cortisol; conditions: ingestion of 1 gram for 7 days
# [6] = tested on: cognitive function; conditions: administration of 9 grams
# Sequence of inducible nitric oxide synthase (P35228 whole entry): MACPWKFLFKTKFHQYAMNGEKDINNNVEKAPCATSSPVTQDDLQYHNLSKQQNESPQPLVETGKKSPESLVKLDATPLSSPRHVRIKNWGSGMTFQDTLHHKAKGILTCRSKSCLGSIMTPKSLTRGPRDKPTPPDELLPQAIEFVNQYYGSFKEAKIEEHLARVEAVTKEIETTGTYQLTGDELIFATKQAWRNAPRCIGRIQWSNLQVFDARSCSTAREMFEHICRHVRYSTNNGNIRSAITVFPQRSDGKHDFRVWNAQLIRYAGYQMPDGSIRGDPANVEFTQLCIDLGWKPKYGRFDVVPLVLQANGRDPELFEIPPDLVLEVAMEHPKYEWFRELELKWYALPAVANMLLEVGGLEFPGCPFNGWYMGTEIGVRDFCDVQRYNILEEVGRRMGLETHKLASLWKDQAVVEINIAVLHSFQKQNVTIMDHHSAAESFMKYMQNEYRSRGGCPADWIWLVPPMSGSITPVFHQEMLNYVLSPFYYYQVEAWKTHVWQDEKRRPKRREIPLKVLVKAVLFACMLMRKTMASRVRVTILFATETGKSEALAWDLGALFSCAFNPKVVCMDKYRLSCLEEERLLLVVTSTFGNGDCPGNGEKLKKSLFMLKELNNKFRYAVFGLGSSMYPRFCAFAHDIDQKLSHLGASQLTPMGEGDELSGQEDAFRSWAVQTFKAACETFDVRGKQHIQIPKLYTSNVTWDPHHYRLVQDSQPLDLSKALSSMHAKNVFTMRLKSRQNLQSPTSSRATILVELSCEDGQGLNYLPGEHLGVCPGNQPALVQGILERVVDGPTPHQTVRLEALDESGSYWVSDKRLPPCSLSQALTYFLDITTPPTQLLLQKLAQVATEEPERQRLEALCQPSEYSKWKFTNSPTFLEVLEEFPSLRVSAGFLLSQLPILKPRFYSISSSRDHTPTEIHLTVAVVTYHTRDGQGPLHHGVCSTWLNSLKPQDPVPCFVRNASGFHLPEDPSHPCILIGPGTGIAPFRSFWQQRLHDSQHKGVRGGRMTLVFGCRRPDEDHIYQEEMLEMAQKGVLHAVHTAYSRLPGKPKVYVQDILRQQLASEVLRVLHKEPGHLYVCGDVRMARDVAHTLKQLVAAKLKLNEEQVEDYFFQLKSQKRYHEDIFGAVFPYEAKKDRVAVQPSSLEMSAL
compound,measurement,setting,value
COc1cc(/C=C/C(=O)CC(=O)/C=C/c2ccc(O)c(OC)c2)ccc1O [curcumin],activity of lipoxygenase,[1],down-regulating the activity
same,activity of inducible nitric oxide synthase,[2],down-regulating the activity
same,bioavailability (levels in plasma and tissues),[3],poor bioavailability
phosphotidylserine,muscle soreness,[4],prevent muscle soreness
same,recovery,[4],speed up recovery
same,well-being,[4],improve well-being
O=C1O[C@H]([C@@H](O)CO)C(O)=C1O [vitamin C],cortisol rise in response to lipopolysaccharide administration,[5],blunts the cortisol rise
N[C@@H](Cc1ccc(O)cc1)C(=O)O [tyrosine],cognitive function following experimentally induced hypothermia,[6],improves cognitive function
